Measured values published in patent publication US12281329B2, “Compositions and methods for immune cell modulation in adoptive immunotherapies” (Fate Therapeutics, Inc., priority 2016, dated 2025).

Legend:
KG-1 cells = experiment: NK cell cytotoxicity assay, KG-1 target cells; format: cell-based, human; conditions: 1 μM STING agonist added to 7 day 10 ng/mL IL-15 + 5 μM CHIR99021 culture; 4 hours
Experimental: (§1) NK Cell Cytotoxicity Assay: Cytotoxicity was determined using a flow cytometry based method based on a previously published method (Kim, et al. J Immunol Methods. 2007 Aug. 31; 325(1-2): 51-66). NK cells were co-cultured with e450-proliferation dye-labelled targets for 4 hours. CellEvent™ Caspase-3/7 Green Flow Cytometry Assay Kit (Lifer Technologies) was used to assay for cell death among target cells, and samples were read on a BD LSRFortessa cytometer. Killing of SKOV-3 targets was quantified using the Incucyte Zoom instrument. SKOV-3 cells were transiently transduced with NucLight-Red BacMam reagent (Essen Biosciences) and co-cultured with the indicated NK cell populations for 74 hours, with images taken on two hour intervals. Caspase 3/7 activity was monitored to indicate target cells undergoing apoptosis using the CellEvent™ Caspase-3/7 Green Detection Reagent. The number of target cells was normalized to SKOV-3 cells cultured alone, and targets undergoing apoptosis were quantified based on caspase 3/7 activity.
(§2) The ability of STING agonist to enhance cytotoxicity of GSK3i multiday modulated NK cells was assessed using in vitro killing assays. […]

Nalm6 cells = experiment: NK cell cytotoxicity assay, Nalm6 target cells; format: cell-based, human; conditions: 1 μM STING agonist added to 7 day 10 ng/mL IL-15 + 5 μM CHIR99021 culture; 4 hours
Experimental: as §1, §2

NK cells = experiment: 7 day NK culture with IL15, GSK3i and/or STING agonist: phenotype by flow cytometry; format: cell-based, human
Experimental: CD3/CD19 depleted PBMC were cultured for 7 days in the presence of 10 ng/ml IL15 and (1) DMSO (vehicle); (2) […] GSK3i (CHIR99021); (3) 1 μM STING agonist (ML RR-S2 CDA); or (4) […] GSK3i+1 μM STING agonist. On day 7, NK cell function and phenotype was assessed by intracellular cytokine staining, cytotoxicity assays, and flow cytometry. […] The frequency of CD107a+ NK cells after incubation with K562 cells was increased for cells cultured for 7 days with IL-15+GSK3i+STING agonist compared to cells cultured with IL-15+GSK3i only (FIG. 16C). Increased cell surface CD107a expression is associated with enhanced degranulation and cytotoxic potential of NK cells in the presence of STING agonist in combination with GSK3i.
Natural Killer (NK) cells recognize and destroy tumors and virus-infected cells in an antibody-independent manner. The regulation of NK cells is mediated by activating and inhibiting receptors on the NK cell surface. One important family of activating receptors is the natural cytotoxicity receptors (NCRs) which include NKp30, NKp44 and NKp46. The NCRs initiate tumor targeting by recognition of their specific ligands on cancer cells.

K562 cells = experiment: NK cell cytotoxicity assay, K562 target cells; format: cell-based; conditions: 1 μM STING agonist added to 7 day 10 ng/mL IL-15 + 5 μM CHIR99021 culture; 4 hours
Experimental: as §1
The ability of GSK3 inhibition to enhance cytotoxicity of NK cells isolated directly from donors was assessed using in vitro killing assays. […] depleted PBMC population was treated overnight with 10 ng/mL IL-15 only (primed), or a 7 day culture combination of 10 ng/mL IL-15 and 5 μM CHIR99021. The target cells for the killing assays included K562 cells, CD20+ Raji cells, HER2+ SKOV3 cells and HER2+A549 cells. The E:T (Effector:Target) ratio applied to each assay ranged from 0.1, 0.5, 1, 5 to 10. After the target cells were incubated with the differently treated NK cells for 4 hours, the respective percentage of specific killing (target cell lysis) was calculated. […] Raji cells are less prone to NK mediated cytotoxicity.
as §2

For `Nc1ncnc2c1ncn2[C@@H]1O[C@@H]2COP(O)(=S)O[C@@H]3C(O)[C@@H](COP(O)(=S)O[C@H]2[C@H]1O)O[C@H]3n1cnc2c(N)ncnc21` (stereo partly drawn) [ML RR-S2 CDA], the “cytotoxicity (specific killing) against KG-1 cells” value (KG-1 cells) was “enhanced”, the “cytotoxicity (specific killing) against Nalm6 cells” value (Nalm6 cells) was “enhanced” and the “effect on adaptive NK phenotype and total NK number” value (NK cells; 7 days, 10 ng/ml IL15, 1 μM STING agonist) was “limited effect”. For the same molecule, the “total CD57+NK number” value (NK cells; FIG. 15A) was “limited effect”, the “CD57+NKG2C+NK phenotype” value (NK cells; FIG. 15B) was “limited effect” and the “cytotoxicity (specific killing) against K562 cells” value (K562 cells) was “enhanced”.
